Test results taken from ChEMBL document CHEMBL4706479, “Novel Aryloxyethyl Derivatives of 1-(1-Benzoylpiperidin-4-yl)methanamine as the Extracellular Regulated Kinases 1/2 (ERK1/2) Phosphorylation-Preferring Serotonin 5-HT Receptor-Biased Agonists with Robust Antidepressant-like Activity” (J Med Chem, 2019).
In brackets after ≈: the same amount, converted by molar mass.

Columns and labels:
Rattus norvegicus [1] = assay: Antidepressant-like activity in Wistar rat assessed as minimum effective dose causing reduction in immobility time administered intraperitoneally with compound 60 mins prior to testing and measured for 5 mins test period by Porsolt-forced swim test; type: functional; settings: ip, 1.083 h, time 65 min, read-out: MED
Rattus norvegicus [2] = assay: Antidepressant-like activity in Wistar rat assessed as reduction in immobility time at 15 mg/kg, ip administered 60 mins prior to testing and measured for 5 mins test period by Porsolt-forced swim test; type: functional; set-up: scale not given: the % may be the effect or the level left; settings: time 65 min, 1.083 h
[3] = target: T1, Adrenergic receptor alpha-1 (Rattus norvegicus, UniProt P15823+P23944+P43140); assay: Displacement of [3H]-prazosin from alpha1 adrenergic receptor in rat cortex measured after 30 mins by microbeta2 scintillation counting method; type: tissue-based
T1 sequence (P15823 whole entry): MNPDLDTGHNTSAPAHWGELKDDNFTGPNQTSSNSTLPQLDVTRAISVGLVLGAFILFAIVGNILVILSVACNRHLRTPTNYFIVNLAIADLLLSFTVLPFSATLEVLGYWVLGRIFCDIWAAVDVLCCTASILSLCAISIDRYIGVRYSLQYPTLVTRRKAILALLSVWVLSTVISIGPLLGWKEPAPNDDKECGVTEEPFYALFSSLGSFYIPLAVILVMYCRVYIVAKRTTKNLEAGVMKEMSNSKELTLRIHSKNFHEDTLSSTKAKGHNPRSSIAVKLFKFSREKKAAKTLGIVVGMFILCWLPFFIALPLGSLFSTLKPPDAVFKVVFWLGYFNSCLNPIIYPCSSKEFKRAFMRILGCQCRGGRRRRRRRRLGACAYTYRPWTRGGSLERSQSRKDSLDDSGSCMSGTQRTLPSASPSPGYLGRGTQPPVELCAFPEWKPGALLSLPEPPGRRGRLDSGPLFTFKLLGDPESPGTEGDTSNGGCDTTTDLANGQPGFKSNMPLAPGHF
T1 sequence (P23944 whole entry): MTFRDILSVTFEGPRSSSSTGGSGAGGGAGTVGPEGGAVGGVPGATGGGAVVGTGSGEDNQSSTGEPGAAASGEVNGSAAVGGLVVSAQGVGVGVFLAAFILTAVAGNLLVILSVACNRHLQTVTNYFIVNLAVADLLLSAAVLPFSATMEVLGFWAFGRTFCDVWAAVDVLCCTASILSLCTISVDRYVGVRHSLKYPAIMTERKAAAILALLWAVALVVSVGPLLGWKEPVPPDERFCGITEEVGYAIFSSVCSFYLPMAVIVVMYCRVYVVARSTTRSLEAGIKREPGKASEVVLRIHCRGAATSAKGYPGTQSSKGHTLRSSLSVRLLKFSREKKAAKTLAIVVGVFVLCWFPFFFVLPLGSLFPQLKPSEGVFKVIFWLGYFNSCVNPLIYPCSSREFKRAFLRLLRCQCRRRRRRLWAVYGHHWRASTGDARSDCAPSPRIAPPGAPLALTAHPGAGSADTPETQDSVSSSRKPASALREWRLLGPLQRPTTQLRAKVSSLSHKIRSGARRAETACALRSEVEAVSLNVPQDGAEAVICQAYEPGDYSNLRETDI
T1 sequence (P43140 whole entry): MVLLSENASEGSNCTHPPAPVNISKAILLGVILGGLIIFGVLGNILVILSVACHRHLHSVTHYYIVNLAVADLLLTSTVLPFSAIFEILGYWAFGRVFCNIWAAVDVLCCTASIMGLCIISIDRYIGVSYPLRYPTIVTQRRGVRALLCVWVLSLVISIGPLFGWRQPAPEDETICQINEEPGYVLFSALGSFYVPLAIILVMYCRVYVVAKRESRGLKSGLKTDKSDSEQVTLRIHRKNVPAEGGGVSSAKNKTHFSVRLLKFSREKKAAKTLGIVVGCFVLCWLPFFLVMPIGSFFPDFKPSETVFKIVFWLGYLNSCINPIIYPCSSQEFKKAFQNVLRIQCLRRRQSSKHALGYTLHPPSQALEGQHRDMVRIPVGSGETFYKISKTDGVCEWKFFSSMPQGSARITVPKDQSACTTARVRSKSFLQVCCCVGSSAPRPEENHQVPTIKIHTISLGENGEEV

[4] = target: T2, 5-hydroxytryptamine receptor 1A (Homo sapiens) (UniProt P08908); assay: Biased agonist activity at human recombinant 5-HT1A receptor stably expressed in CHO-K1 cells assessed as increase in ERK1/2 phosphorylation levels incubated for 15 mins by Alphalisa assay relative to serotonin; type: cell-based
T2 sequence (whole entry): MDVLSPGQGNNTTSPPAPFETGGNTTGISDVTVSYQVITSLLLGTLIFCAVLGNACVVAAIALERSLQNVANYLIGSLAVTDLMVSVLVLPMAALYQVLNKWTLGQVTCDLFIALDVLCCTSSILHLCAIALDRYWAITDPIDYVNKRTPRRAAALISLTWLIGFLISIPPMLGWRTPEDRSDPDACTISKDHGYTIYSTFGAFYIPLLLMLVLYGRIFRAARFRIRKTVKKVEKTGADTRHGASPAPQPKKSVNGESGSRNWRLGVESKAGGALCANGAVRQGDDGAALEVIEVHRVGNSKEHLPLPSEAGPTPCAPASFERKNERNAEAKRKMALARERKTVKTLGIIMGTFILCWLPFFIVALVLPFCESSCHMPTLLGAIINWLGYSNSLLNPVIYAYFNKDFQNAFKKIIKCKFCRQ

[5] = target: T2, 5-hydroxytryptamine receptor 1A (Homo sapiens); assay: Biased agonist activity at human recombinant 5-HT1A receptor stably expressed in CHO-K1 cells assessed as inhibition of forskolin-induced cAMP accumulation after 40 mins by LANCE Ultra cAMP kit-based TR-FRET assay relative to serotonin; type: functional, cell-based
[6] = target: T2, 5-hydroxytryptamine receptor 1A (Homo sapiens); assay: Biased agonist activity at Gal4-VP16 transcription factor linked human 5-HT1A receptor expressed in human U2OS cells assessed as stimulation of beta-arrestin recruitment measured after 5 hrs by Tango assay relative to serotonin; type: cell-based
[7] = target: T2, 5-hydroxytryptamine receptor 1A (Homo sapiens); assay: Biased agonist activity at human recombinant 5-HT1A receptor stably expressed in CHO-K1 cells assessed as increase in calcium mobilization measured at 2 sec intervals for 180 secs by Fluo-4AM dye based fluorescence assay relative to serotonin; type: functional, cell-based; settings: time 180.0 sec
D(2) dopamine receptor = D(2) dopamine receptor (Homo sapiens, UniProt P14416); assay: Displacement of [3H]-methylspiperone from recombinant human D2 receptor stably expressed in CHO-K1 cell membranes measured after 60 mins by microbeta2 scintillation counting method; set-up: species or system Cell membrane
Sequence of D(2) dopamine receptor (P14416 whole entry): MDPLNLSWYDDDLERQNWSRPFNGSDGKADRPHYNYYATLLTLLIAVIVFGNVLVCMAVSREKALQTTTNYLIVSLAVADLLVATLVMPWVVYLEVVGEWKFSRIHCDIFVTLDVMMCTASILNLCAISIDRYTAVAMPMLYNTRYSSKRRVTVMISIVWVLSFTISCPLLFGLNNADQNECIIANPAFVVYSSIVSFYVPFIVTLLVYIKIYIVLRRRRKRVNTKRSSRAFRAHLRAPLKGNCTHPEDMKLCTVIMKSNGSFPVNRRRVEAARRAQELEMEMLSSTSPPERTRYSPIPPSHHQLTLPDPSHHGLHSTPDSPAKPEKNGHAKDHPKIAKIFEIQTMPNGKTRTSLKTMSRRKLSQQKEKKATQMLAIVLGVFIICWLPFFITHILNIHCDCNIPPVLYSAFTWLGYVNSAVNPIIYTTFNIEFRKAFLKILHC

[8] = target: T3, 5-hydroxytryptamine receptor 1A (Homo sapiens, UniProt P08908); assay: Displacement of [3H]8-OH-DPAT from recombinant human 5HT1A receptor stably expressed in CHO-K1 cell membranes measured after 60 mins by microbeta2 scintillation counting method; set-up: species or system Cell membrane
T3 sequence (P08908 whole entry): T2 sequence (whole entry)

[9] = target: T3, 5-hydroxytryptamine receptor 1A; assay: Biased agonist activity at human recombinant 5-HT1A receptor stably expressed in CHO-K1 cells assessed as increase in ERK1/2 phosphorylation levels incubated for 15 mins by Alphalisa assay; type: cell-based
[10] = target: T3, 5-hydroxytryptamine receptor 1A; assay: Biased agonist activity at human recombinant 5-HT1A receptor stably expressed in CHO-K1 cells assessed as inhibition of forskolin-induced cAMP accumulation after 40 mins by LANCE Ultra cAMP kit-based TR-FRET assay; type: functional, cell-based
[11] = target: T3, 5-hydroxytryptamine receptor 1A; assay: Biased agonist activity at human recombinant 5-HT1A receptor stably expressed in CHO-K1 cells assessed as increase in calcium mobilization measured at 2 sec intervals for 180 secs by Fluo-4AM dye based fluorescence assay; type: functional, cell-based
Rattus norvegicus [12] = assay: Antidepressant-like activity in Wistar rat assessed as minimum effective dose causing reduction in immobility time after oral administration with compound 60 mins prior to testing and measured for 5 mins test period by Porsolt-forced swim test; type: functional; settings: 1.083 h, time 65 min, read-out: MED
Rattus norvegicus [13] = assay: Antidepressant-like activity in Wistar rat assessed as maximum effective dose causing reduction in immobility time after oral administration with compound 60 mins prior to testing and measured for 5 mins test period by Porsolt-forced swim test; type: functional; settings: time 65 min; 1.083 h
[14] = target: T2, 5-hydroxytryptamine receptor 1A (Homo sapiens); assay: Bias factor, ratio of biased agonist activity at human recombinant 5-HT1A receptor stably expressed in CHO-K1 cells assessed as increase in ERK1/2 phosphorylation levels to biased agonist activity at human recombinant 5-HT1A receptor stably expressed in CHO-K1 cells assessed as inhibition of forskolin-induced cAMP accumulation; type: functional, cell-based
[15] = target: T2, 5-hydroxytryptamine receptor 1A (Homo sapiens); assay: Bias factor, ratio of biased agonist activity at human recombinant 5-HT1A receptor stably expressed in CHO-K1 cells assessed as increase in ERK1/2 phosphorylation levels to biased agonist activity at Gal4-VP16 transcription factor linked human 5-HT1A receptor expressed in human U2OS cells assessed as stimulation of beta-arrestin recruitment; type: cell-based
[16] = target: T2, 5-hydroxytryptamine receptor 1A (Homo sapiens); assay: Bias factor, ratio of biased agonist activity at human recombinant 5-HT1A receptor stably expressed in CHO-K1 cells assessed as inhibition of forskolin-induced cAMP accumulation to biased agonist activity at Gal4-VP16 transcription factor linked human 5-HT1A receptor expressed in human U2OS cells assessed as stimulation of beta-arrestin recruitment; type: functional, cell-based
[17] = Aqueous solubility of compound in pH 7.4 PBS buffer at 200 uM; type: physicochemical
Rattus norvegicus [18] = assay: Antidepressant-like activity in Wistar rat assessed as reduction in immobility time at 10 mg/kg, ip administered 60 mins prior to testing and measured for 5 mins test period by Porsolt-forced swim test; type: functional; set-up: scale not given: the % may be the effect or the level left; settings: time 65 min, 1.083 h
[19] = Permeability of compound across basolateral to apical side in human Caco-2 cells at pH 7.4; type: ADME, cell-based; settings: Caco-2, pH 7.4, read-out: permeability
in vitro = settings: human, liver microsomes

Row | Compound | pKi [3] | Emax ([4]; filed as agonist) [%] | Emax ([5]; filed as agonist) [%] | Emax ([6]; filed as agonist) [%] | Ki (D(2) dopamine receptor) [nM] | Ki [8] [nM] | further results
1 | CNC1(c2ccccc2Cl)CCCCC1=O (centres undefined) [KETAMINE] | – | – | – | – | – | – | minimal effective dose (Rattus norvegicus [1]): 5 mg/kg; Activity (Rattus norvegicus [2]): 43%
2 | O=C(c1ccc(F)c(Cl)c1)N1CCC(F)(CNCCOc2ncccn2)CC1 | < 6 | – | – | – | – | – | –
3 | O=C(c1ccc(F)c(Cl)c1)N1CCC(F)(CNCCCc2ccccc2)CC1 | < 6 | 77 | 91 | 99 | – | – | Emax ([7]; filed as partial agonist): 74%
4 | O=C(c1ccc(F)c(Cl)c1)N1CCC(F)(CNCCOc2ccnnc2)CC1 | < 6 | – | – | – | > 1000 | 200 | –
5 | Cc1cnc(CNCC2(F)CCN(C(=O)c3ccc(F)c(Cl)c3)CC2)nc1 | – | – | – | – | > 1000 | 2.19 | EC50 [9]: 4.68 nM; EC50 [10]: 60.3 nM; EC50 [11]: 245 nM; minimal effective dose (Rattus norvegicus [12]): 0.63 mg/kg; ED (Rattus norvegicus [13]): 5 mg/kg
6 | O=C(c1ccc(F)c(Cl)c1)N1CCC(F)(CNCCOc2cnccn2)CC1 | < 6 | 100 | 90 | 97 | – | – | Emax ([7]; filed as agonist): 89%
7 | O=C(c1ccc(F)c(Cl)c1)N1CCC(F)(CNCCOc2ccncc2)CC1 | < 6 | – | – | – | > 1000 | 389 | –
8 | O=C(c1ccc(F)c(Cl)c1)N1CCC(F)(CNCCSc2ccccn2)CC1 | – | 84 | 76 | 102 | – | – | Emax ([7]; filed as partial agonist): 73%
9 | O=C(c1ccc(F)c(Cl)c1)N1CCC(F)(CNCCSc2ccccc2)CC1 | – | – | – | – | > 1000 | 0.562 | Ratio [14]: 1.27; Emax ([4]; filed as partial agonist): 85%; EC50 [9]: 170 nM; Emax ([5]; filed as partial agonist): 71%; EC50 [10]: 2450 nM; Emax ([6]; filed as partial agonist): 70%; Ratio [15]: 0.82; Ratio [16]: -0.45
10 | O=C(c1ccc(Cl)c(Cl)c1)N1CCC(F)(CNCCOc2ccccn2)CC1 | – | 85 | 71 | 99 | – | – | Emax ([7]; filed as partial agonist): 58%
11 | O=C(c1ccc(F)c(Cl)c1)N1CCC(F)(CNCCCc2ccccn2)CC1 | – | – | – | 101 | – | – | Emax ([5]; filed as partial agonist): 74%; Emax ([7]; filed as agonist): 87%
12 | COCCc1ccc(OCC(O)CNC(C)C)cc1 (centres undefined) [METOPROLOL] | – | – | – | – | – | – | solubility at 200 µM [17]: 181 µM (≈ 48.3 µg/mL)
13 | CN(C)CCCN1c2ccccc2CCc2ccccc21 [IMIPRAMINE] | – | – | – | – | – | – | minimal effective dose (Rattus norvegicus [1]): 10 mg/kg; Activity (Rattus norvegicus [18]): 25%
14 | Cc1cnc(OCCNCC2(F)CCN(C(=O)c3ccc(F)c(Cl)c3)CC2)nc1 | < 6 | – | – | – | – | – | Emax ([4]; filed as partial agonist): 72%; Emax ([5]; filed as partial agonist): 41%; Emax ([6]; filed as partial agonist): 75%
15 | O=C(c1ccc(F)c(Cl)c1)N1CCC(F)(CNCCNc2ccccc2)CC1 | < 6 | 81 | 79 | 104 | – | – | Emax ([7]; filed as partial agonist): 65%
16 | O=C(c1ccc(Cl)c(Cl)c1)N1CCC(F)(CNCCOc2ccccc2)CC1 | – | – | – | – | > 1000 | 0.0148 | –
17 | O=C(c1ccc(F)c(Cl)c1)N1CCC(F)(CNCCOc2cccnc2)CC1 | < 6 | 99 | 100 | 101 | – | – | Emax ([7]; filed as agonist): 98%
18 | O=C(c1ccc(F)c(Cl)c1)N1CCC(F)(CNCCNc2ccccn2)CC1 | – | – | 86 | 99 | – | – | Emax ([7]; filed as partial agonist): 52%
19 | O=C(c1ccc(F)c(Cl)c1)N1CCC(F)(CNCCOc2cncnc2)CC1 | < 6 | – | – | – | > 1000 | 209 | –
20 | CC(C)NCC(O)COc1cccc2ccccc12 (centres undefined) [PROPRANOLOL] | – | – | – | – | – | – | Papp B→A [19]: 27.4 ×10⁻⁶ cm/s; half-life at 0.1 µM (in vitro): > 1 h
